What was measured:
Assay in all cases: relative viability (nuclei count vs DMSO), 5 days (fraction); higher = more cells survive
201T = test system: 201T
Procedure, shortened: (§1)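 Medians of duplicate plates are given as relative viability. That measure is the nuclei count in treated wells divided by the count in vehicle wells. Counts were taken on 4× images of lung cancer cell lines in 1536-well plates, 5 days after pin-tool dosing the day after seeding with one drug alone or a fixed anchor-drug dose plus five library-drug doses (not always all listed) in √10 steps.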

BEN = test system: BEN
Procedure, shortened: as §1

COR-L 105 = test system: COR-L 105
Procedure, shortened: as §1

EKVX = test system: EKVX
Procedure, shortened: as §1

EPLC-272H = test system: EPLC-272H
Procedure, shortened: as §1

H3255 = test system: H3255
Procedure, shortened: as §1

HCC-44 = test system: HCC-44
Procedure, shortened: as §1

HCC-827 = test system: HCC-827
Procedure, shortened: as §1

LCLC-97TM1 = test system: LCLC-97TM1
Procedure, shortened: as §1

LOU-NH91 = test system: LOU-NH91
Procedure, shortened: as §1

LU99A = test system: LU99A
Procedure, shortened: as §1

NCI-H1437 = test system: NCI-H1437
Procedure, shortened: as §1

NCI-H1666 = test system: NCI-H1666
Procedure, shortened: as §1

NCI-H1975 = test system: NCI-H1975
Procedure, shortened: as §1

NCI-H2085 = test system: NCI-H2085
Procedure, shortened: as §1

NCI-H2087 = test system: NCI-H2087
Procedure, shortened: as §1

NCI-H2170 = test system: NCI-H2170
Procedure, shortened: as §1

NCI-H2342 = test system: NCI-H2342
Procedure, shortened: as §1

NCI-H647 = test system: NCI-H647
Procedure, shortened: as §1

NCI-H650 = test system: NCI-H650
Procedure, shortened: as §1

PC-3 [JPC-3] = test system: PC-3 [JPC-3]
Procedure, shortened: as §1

SW 1573 = test system: SW 1573
Procedure, shortened: as §1

CCN(CC)CCCCNc1ncc2cc(-c3cc(OC)cc(OC)c3)c(NC(=O)NC(C)(C)C)nc2n1 + O=C(c1cc(Cc2n[nH]c(=O)c3ccccc23)ccc1F)N1CCN(C(=O)C2CC2)CC1 [Olaparib] (partner 8 µM)
relative viability (201T; first compound 0.01 µM): 0.913 | relative viability (201T; first compound 0.03162 µM): 0.807 | relative viability (201T; first compound 0.1 µM): 0.924 | relative viability (201T; first compound 0.3162 µM): 0.853 | relative viability (201T; first compound 1 µM): 0.719 | relative viability (BEN; first compound 0.01 µM): 1.18 | relative viability (BEN; first compound 0.03162 µM): 0.97 | relative viability (BEN; first compound 0.1 µM): 1.01 | relative viability (BEN; first compound 0.3162 µM): 1.17 | relative viability (BEN; first compound 1 µM): 1.01 | relative viability (COR-L 105; first compound 0.01 µM): 0.805 | relative viability (COR-L 105; first compound 0.03162 µM): 0.62 | relative viability (COR-L 105; first compound 0.1 µM): 0.73 | relative viability (COR-L 105; first compound 0.3162 µM): 0.619 | relative viability (COR-L 105; first compound 1 µM): 0.696 | relative viability (EKVX; first compound 0.03162 µM): 0.873 | relative viability (EKVX; first compound 0.1 µM): 1.07 | relative viability (EKVX; first compound 0.3162 µM): 1.05 | relative viability (EKVX; first compound 1 µM): 0.868 | relative viability (EPLC-272H; first compound 0.01 µM): 0.884 | relative viability (EPLC-272H; first compound 0.03162 µM): 0.701 | relative viability (EPLC-272H; first compound 0.1 µM): 0.647 | relative viability (EPLC-272H; first compound 0.3162 µM): 0.737 | relative viability (EPLC-272H; first compound 1 µM): 0.488 | relative viability (H3255; first compound 0.01 µM): 0.567 | relative viability (H3255; first compound 0.03162 µM): 0.52 | relative viability (H3255; first compound 0.1 µM): 0.581 | relative viability (H3255; first compound 0.3162 µM): 0.575 | relative viability (H3255; first compound 1 µM): 0.558 | relative viability (HCC-44; first compound 0.01 µM): 1.06 | relative viability (HCC-44; first compound 0.03162 µM): 1.07 | relative viability (HCC-44; first compound 0.1 µM): 1.03 | relative viability (HCC-44; first compound 0.3162 µM): 1.01 | relative viability (HCC-44; first compound 1 µM): 0.942 | relative viability (HCC-827; first compound 0.01 µM): 0.611 | relative viability (HCC-827; first compound 0.03162 µM): 0.668 | relative viability (HCC-827; first compound 0.1 µM): 0.702 | relative viability (HCC-827; first compound 0.3162 µM): 0.682 | relative viability (HCC-827; first compound 1 µM): 0.735 | relative viability (LCLC-97TM1; first compound 0.01 µM): 0.413 | relative viability (LCLC-97TM1; first compound 0.03162 µM): 0.399 | relative viability (LCLC-97TM1; first compound 0.1 µM): 0.479 | relative viability (LCLC-97TM1; first compound 0.3162 µM): 0.512 | relative viability (LCLC-97TM1; first compound 1 µM): 0.222 | relative viability (LOU-NH91; first compound 0.01 µM): 0.895 | relative viability (LOU-NH91; first compound 0.03162 µM): 0.9 | relative viability (LOU-NH91; first compound 0.1 µM): 0.954 | relative viability (LOU-NH91; first compound 0.3162 µM): 0.952 | relative viability (LOU-NH91; first compound 1 µM): 0.884 | relative viability (LU99A; first compound 0.01 µM): 0.249 | relative viability (LU99A; first compound 0.03162 µM): 0.288 | relative viability (LU99A; first compound 0.1 µM): 0.286 | relative viability (LU99A; first compound 0.3162 µM): 0.285 | relative viability (LU99A; first compound 1 µM): 0.245 | relative viability (NCI-H1437; first compound 0.01 µM): 0.635 | relative viability (NCI-H1437; first compound 0.03162 µM): 0.666 | relative viability (NCI-H1437; first compound 0.1 µM): 0.681 | relative viability (NCI-H1437; first compound 0.3162 µM): 0.642 | relative viability (NCI-H1437; first compound 1 µM): 0.614 | relative viability (NCI-H1666; first compound 0.01 µM): 0.812 | relative viability (NCI-H1666; first compound 0.03162 µM): 0.708 | relative viability (NCI-H1666; first compound 0.1 µM): 0.686 | relative viability (NCI-H1666; first compound 0.3162 µM): 0.748 | relative viability (NCI-H1666; first compound 1 µM): 0.719 | relative viability (NCI-H1975; first compound 0.01 µM): 0.85 | relative viability (NCI-H1975; first compound 0.03162 µM): 0.791 | relative viability (NCI-H1975; first compound 0.1 µM): 1.05 | relative viability (NCI-H1975; first compound 0.3162 µM): 0.903 | relative viability (NCI-H1975; first compound 1 µM): 0.708 | relative viability (NCI-H2085; first compound 0.01 µM): 0.818 | relative viability (NCI-H2085; first compound 0.03162 µM): 0.81 | relative viability (NCI-H2085; first compound 0.1 µM): 0.792 | relative viability (NCI-H2085; first compound 0.3162 µM): 0.743 | relative viability (NCI-H2085; first compound 1 µM): 0.752 | relative viability (NCI-H2087; first compound 0.01 µM): 0.581 | relative viability (NCI-H2087; first compound 0.03162 µM): 0.599 | relative viability (NCI-H2087; first compound 0.1 µM): 0.71 | relative viability (NCI-H2087; first compound 0.3162 µM): 0.735 | relative viability (NCI-H2087; first compound 1 µM): 0.476 | relative viability (NCI-H2170; first compound 0.01 µM): 0.583 | relative viability (NCI-H2170; first compound 0.03162 µM): 0.559 | relative viability (NCI-H2170; first compound 0.1 µM): 0.655 | relative viability (NCI-H2170; first compound 0.3162 µM): 0.676 | relative viability (NCI-H2170; first compound 1 µM): 0.732 | relative viability (NCI-H2342; first compound 0.01 µM): 0.476 | relative viability (NCI-H2342; first compound 0.03162 µM): 0.437 | relative viability (NCI-H2342; first compound 0.1 µM): 0.459 | relative viability (NCI-H2342; first compound 0.3162 µM): 0.509 | relative viability (NCI-H2342; first compound 1 µM): 0.519 | relative viability (NCI-H647; first compound 0.01 µM): 0.476 | relative viability (NCI-H647; first compound 0.03162 µM): 0.732 | relative viability (NCI-H647; first compound 0.1 µM): 0.674 | relative viability (NCI-H647; first compound 0.3162 µM): 0.563 | relative viability (NCI-H647; first compound 1 µM): 0.393 | relative viability (NCI-H650; first compound 0.01 µM): 0.369 | relative viability (NCI-H650; first compound 0.03162 µM): 0.408 | relative viability (NCI-H650; first compound 0.1 µM): 0.41 | relative viability (NCI-H650; first compound 0.3162 µM): 0.355 | relative viability (NCI-H650; first compound 1 µM): 0.391 | relative viability (PC-3 [JPC-3]; first compound 0.03162 µM): 1.08 | relative viability (PC-3 [JPC-3]; first compound 0.1 µM): 1.29 | relative viability (PC-3 [JPC-3]; first compound 0.3162 µM): 1.19 | relative viability (PC-3 [JPC-3]; first compound 1 µM): 1.07 | relative viability (SW 1573; first compound 0.01 µM): 0.513 | relative viability (SW 1573; first compound 0.03162 µM): 0.551 | relative viability (SW 1573; first compound 0.1 µM): 0.613 | relative viability (SW 1573; first compound 0.3162 µM): 0.522 | relative viability (SW 1573; first compound 1 µM): 0.421

From the supplement of paper PMC10307832
